# Measured values reported in ChEMBL document CHEMBL4673260, “Pyridine alkaloids with activity in the central nervous system” (Bioorg Med Chem, 2020).
# pEC50, pIC50, pKi: −log10 of the molar value.
# Legend:
# [1] = Selectivity ratio of Ki for horse serum BuChE to Ki for human erythrocyte acetylcholinesterase
# [2] = target: T1, Acetylcholinesterase (Homo sapiens, UniProt P22303); assay: Inhibition of human erythrocyte acetylcholinesterase using acetylthiocholine as substrate by Ellman's colorimetric method
# T1 sequence (P22303 whole entry): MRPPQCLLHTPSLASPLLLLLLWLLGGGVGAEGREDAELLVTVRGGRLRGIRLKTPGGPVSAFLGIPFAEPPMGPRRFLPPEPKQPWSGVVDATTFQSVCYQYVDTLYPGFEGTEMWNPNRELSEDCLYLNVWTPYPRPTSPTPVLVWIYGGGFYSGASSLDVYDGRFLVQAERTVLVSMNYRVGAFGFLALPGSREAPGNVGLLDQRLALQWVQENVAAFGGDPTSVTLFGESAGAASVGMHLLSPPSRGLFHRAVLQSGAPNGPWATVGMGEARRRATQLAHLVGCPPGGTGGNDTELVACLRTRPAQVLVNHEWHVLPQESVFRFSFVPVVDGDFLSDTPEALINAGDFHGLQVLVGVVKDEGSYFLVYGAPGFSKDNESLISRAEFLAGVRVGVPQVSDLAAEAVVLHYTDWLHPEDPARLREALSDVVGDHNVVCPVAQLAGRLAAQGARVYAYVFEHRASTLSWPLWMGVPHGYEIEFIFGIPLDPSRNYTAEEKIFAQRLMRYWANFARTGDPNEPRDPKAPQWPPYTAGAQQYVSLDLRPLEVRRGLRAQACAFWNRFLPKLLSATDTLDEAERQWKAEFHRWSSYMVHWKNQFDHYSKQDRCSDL
# [3] = target: Cholinesterase (Equus caballus, UniProt P81908); assay: Inhibition of horse serum BuChE by Ellman's colorimetric method
# Sequence of Cholinesterase (Equus caballus, UniProt P81908) (P81908 whole entry): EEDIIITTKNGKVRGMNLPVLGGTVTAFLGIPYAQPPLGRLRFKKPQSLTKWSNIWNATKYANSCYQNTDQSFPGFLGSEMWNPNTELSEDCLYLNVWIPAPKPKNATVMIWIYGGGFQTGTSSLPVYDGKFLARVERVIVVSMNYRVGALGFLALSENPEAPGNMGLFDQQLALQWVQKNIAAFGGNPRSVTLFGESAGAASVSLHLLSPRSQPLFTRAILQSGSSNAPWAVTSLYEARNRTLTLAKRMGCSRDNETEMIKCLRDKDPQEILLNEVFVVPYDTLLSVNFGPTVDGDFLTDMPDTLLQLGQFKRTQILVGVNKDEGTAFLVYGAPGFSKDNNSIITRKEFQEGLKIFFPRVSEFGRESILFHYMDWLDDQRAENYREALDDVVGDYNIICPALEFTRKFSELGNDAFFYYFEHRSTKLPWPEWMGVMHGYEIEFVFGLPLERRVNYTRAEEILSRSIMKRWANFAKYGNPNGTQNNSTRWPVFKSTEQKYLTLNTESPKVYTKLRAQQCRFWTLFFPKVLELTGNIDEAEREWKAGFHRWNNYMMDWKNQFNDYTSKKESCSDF
# [4] = Protection against caffeine-induced mortality in mouse at 250 mg/kg; assay type: ADME, organism-based; details: in vivo
# [5] = tested on: Mus musculus; assay: Anti-analeptic activity in mouse assessed as reduction in convulsion at 125 to 150 mg/kg coadministered with camphor relative to control; assay type: functional; design: scale not given: the % may be the effect or the level left; details: dose 125-150 mg/kg
# [6] = tested on: Mus musculus; assay: Anti-analeptic activity in mouse assessed as reduction in corazol-induced convulsion at 25 mg/kg relative to control; assay type: functional; design: scale not given: the % may be the effect or the level left
# [7] = tested on: Mus musculus; assay: Anti-analeptic activity in mouse assessed as reduction in lethality at 125 to 150 mg/kg coadministered with camphor relative to control; assay type: functional; design: scale not given: the % may be the effect or the level left; details: dose 125-150 mg/kg
# [8] = tested on: Mus musculus; assay: Anti-analeptic activity in mouse assessed as reduction in corazol-induced convulsion at 75 mg/kg relative to control; assay type: functional; design: scale not given: the % may be the effect or the level left
# [9] = Protection against strychnine-induced mortality in mouse at 100 mg/kg; assay type: ADME, organism-based; details: in vivo
# [10] = target: T2, Neuronal acetylcholine receptor subunit alpha-7 (Rattus norvegicus, UniProt Q05941); assay: Displacement of 125I-alpha-bungarotoxin from rat brain alpha7 nAChR by radioligand binding assay
# T2 sequence (Q05941 whole entry): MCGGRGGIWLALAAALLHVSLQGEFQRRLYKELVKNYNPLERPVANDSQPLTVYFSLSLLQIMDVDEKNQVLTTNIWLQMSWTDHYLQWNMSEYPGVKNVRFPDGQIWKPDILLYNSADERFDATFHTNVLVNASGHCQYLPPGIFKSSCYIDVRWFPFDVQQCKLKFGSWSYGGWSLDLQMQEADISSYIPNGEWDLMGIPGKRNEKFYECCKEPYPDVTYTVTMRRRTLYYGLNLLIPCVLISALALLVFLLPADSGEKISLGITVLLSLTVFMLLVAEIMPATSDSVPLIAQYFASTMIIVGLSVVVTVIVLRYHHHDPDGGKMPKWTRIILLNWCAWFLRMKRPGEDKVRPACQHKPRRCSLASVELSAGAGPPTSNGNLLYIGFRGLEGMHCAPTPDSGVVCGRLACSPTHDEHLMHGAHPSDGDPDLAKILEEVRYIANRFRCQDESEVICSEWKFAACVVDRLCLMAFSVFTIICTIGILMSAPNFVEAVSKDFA
# [11] = target: T2, Neuronal acetylcholine receptor subunit alpha-7; assay: Agonist activity at rat brain alpha7 nAChR
# [12] = Toxicity in iv dosed Swiss-Webster mouse by up-and-down method; assay type: organism-based; details: in vivo
# [13] = Neuroprotective activity against NMDA-induced cell death in rat neurons assessed as cell survival pretreated for 45 mins followed by NMDA stimulation and measured after 30 mins by MTT assay (reference value: […]%); assay type: functional, Neuron; details: time 75 min; 1.25 h
# [14] = Neuroprotective activity against glutamate-induced calcium mobilization in rat forebrain derived neurons assessed as calcium elevation at 100 nM (reference value: 811 nM); assay type: functional, Neuron
# [15] = Neuroprotective activity against Bay-K8644-induced calcium mobilization in rat forebrain derived neurons assessed as calcium elevation at 100 nM (reference value: 521 nM); assay type: functional, Neuron
# [16] = Neuroprotective activity against glutamate-induced cell death in rat forebrain derived neurons assessed as neuron death at 100 nM incubated for 45 mins (reference value: 55%); assay type: functional; details: 0.75 h
# [17] = Toxicity in female rat; details: in vivo
# [18] = Toxicity in male rat; details: in vivo
# [19] = Toxicity in ip dosed mouse; assay type: organism-based; details: in vivo
# [20] = tested on: Rattus norvegicus; assay: Antihypertensive activity in spontaneously hypertensive rat assessed as reduction in blood pressure at 50 mg/kg, po measured after 5 hr relative to control; assay type: functional; design: scale not given: the % may be the effect or the level left
# [21] = tested on: Rattus norvegicus; assay: Antihypertensive activity in spontaneously hypertensive rat assessed as reduction in blood pressure at 50 mg/kg, po measured after 3 hrs relative to control; assay type: functional; design: scale not given: the % may be the effect or the level left
# [22] = tested on: Rattus norvegicus; assay: Antihypertensive activity in spontaneously hypertensive rat assessed as reduction in blood pressure at 50 mg/kg, po measured after 1 hr relative to control; assay type: functional; design: scale not given: the % may be the effect or the level left
# [23] = target: T2, Neuronal acetylcholine receptor subunit alpha-7; assay: Agonist activity at rat alpha7 nAChR expressed in Xenopus laevis oocytes; assay type: cell-based, Oocyte
# [24] = target: Neuronal acetylcholine receptor; alpha3/beta4 (Rattus norvegicus, UniProt P04757+P12392); assay: Agonist activity at rat alpha3beta4 nAChR expressed in Xenopus laevis oocytes; assay type: cell-based, Oocyte
# [25] = target: T1, Acetylcholinesterase; assay: Inhibition of human erythrocyte acetylcholinesterase using acetylthiocholine as substrate preincubated for 20 mins followed by substrate addition and measured every 30 secs for 1 hr by Ellman's method
# [26] = target: Acetylcholinesterase (Electrophorus electricus, UniProt O42275)
# Sequence of Acetylcholinesterase (Electrophorus electricus, UniProt O42275) (O42275 whole entry): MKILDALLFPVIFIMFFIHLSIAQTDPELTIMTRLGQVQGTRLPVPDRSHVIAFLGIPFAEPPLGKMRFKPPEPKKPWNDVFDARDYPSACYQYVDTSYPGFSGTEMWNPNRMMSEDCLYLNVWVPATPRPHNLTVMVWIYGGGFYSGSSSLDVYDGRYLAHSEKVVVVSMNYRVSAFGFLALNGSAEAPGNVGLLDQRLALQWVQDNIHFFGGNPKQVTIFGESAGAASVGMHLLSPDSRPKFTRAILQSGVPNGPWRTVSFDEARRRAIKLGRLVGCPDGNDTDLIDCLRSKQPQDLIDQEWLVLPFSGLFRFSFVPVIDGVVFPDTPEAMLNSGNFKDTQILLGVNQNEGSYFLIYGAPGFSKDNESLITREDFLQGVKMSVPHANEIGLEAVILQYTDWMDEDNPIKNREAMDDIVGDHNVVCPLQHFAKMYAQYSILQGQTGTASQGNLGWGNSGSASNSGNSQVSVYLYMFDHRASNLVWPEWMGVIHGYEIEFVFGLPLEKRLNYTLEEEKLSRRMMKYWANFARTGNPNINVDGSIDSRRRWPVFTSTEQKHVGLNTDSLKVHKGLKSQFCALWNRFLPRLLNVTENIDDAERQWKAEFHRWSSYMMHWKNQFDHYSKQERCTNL
# [27] = target: T3, Neuronal acetylcholine receptor; alpha4/beta2 (Homo sapiens, UniProt P17787+P43681); assay: Potency index, ratio of nicotine IC50 to test compound IC50 for Displacement of [3H]cytisine from human alpha4beta2 nAChR by radioligand competition analysis; assay type: protein-complex assay
# T3 sequence (P17787 whole entry): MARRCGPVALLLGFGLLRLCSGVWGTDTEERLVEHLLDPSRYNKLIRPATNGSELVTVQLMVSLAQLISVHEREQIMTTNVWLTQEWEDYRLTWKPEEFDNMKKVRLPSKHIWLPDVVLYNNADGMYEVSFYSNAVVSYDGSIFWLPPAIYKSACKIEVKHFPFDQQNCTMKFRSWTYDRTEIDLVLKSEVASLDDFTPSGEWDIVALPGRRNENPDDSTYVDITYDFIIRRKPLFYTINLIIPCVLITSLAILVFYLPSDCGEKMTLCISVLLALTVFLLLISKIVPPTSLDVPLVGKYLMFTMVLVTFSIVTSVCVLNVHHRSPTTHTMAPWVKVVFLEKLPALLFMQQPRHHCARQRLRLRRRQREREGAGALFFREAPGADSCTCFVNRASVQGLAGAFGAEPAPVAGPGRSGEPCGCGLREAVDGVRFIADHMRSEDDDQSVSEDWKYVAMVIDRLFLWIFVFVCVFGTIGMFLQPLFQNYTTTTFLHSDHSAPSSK
# T3 sequence (P43681 whole entry): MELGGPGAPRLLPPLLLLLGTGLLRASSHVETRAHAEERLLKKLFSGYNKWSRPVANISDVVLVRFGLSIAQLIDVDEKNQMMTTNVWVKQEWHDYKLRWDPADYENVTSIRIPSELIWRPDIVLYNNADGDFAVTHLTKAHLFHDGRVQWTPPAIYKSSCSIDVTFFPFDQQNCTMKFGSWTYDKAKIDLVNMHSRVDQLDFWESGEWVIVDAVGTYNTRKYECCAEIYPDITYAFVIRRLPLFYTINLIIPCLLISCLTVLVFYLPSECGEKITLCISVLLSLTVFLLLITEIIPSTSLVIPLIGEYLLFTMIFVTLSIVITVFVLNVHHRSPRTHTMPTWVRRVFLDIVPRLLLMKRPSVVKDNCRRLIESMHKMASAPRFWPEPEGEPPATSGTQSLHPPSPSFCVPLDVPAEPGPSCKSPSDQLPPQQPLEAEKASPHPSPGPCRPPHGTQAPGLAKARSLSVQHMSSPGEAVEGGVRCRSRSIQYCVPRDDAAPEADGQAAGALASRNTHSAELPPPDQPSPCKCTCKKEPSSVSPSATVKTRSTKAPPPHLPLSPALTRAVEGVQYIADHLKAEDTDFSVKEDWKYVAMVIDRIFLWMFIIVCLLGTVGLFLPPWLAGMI
# [28] = target: T3, Neuronal acetylcholine receptor; alpha4/beta2
# [29] = target: T3, Neuronal acetylcholine receptor; alpha4/beta2; remark: listed apart in the source
# [30] = target: T3, Neuronal acetylcholine receptor; alpha4/beta2; assay: Potency index, ratio of nicotine Ki to test compound Ki for Displacement of [3H]cytisine from human alpha4beta2 nAChR by Cheng-Prusoff equation analysis; assay type: protein-complex assay
# [31] = target: T1, Acetylcholinesterase
# [32] = target: Cholinesterase (Homo sapiens, UniProt P06276); assay: Inhibition of BuChE (unknown origin)
# [33] = target: T3, Neuronal acetylcholine receptor; alpha4/beta2; assay: Potency index, ratio of nicotine I-max to compound I-max for human brain alpha4beta2 nAChR expressed in CHO cells; assay type: cell-based
# [34] = target: T3, Neuronal acetylcholine receptor; alpha4/beta2; remark: listed apart in the source
# Description: Agonist activity at human brain alpha4beta2 nAChR expressed in CHO cells by patch clamp electrophysiological assay
# [35] = target: T3, Neuronal acetylcholine receptor; alpha4/beta2; assay: Agonist activity at human brain alpha4beta2 nAChR expressed in CHO cells assessed as maximal receptor response by patch clamp electrophysiological assay relative to control; assay type: cell-based
# [36] = target: T3, Neuronal acetylcholine receptor; alpha4/beta2; assay: Potency index, ratio of nicotine EC50 to compound EC50 for human brain alpha4beta2 nAChR expressed in CHO cells; assay type: cell-based
# [37] = organism: Rattus norvegicus; assay: Antagonist activity at nAChR in Sprague-Dawley rat striatum assessed as inhibition of nicotine-evoked [3H] dopamine release at 100 nM relative to control; assay type: tissue-based
# [38] = target: T4, Neuronal acetylcholine receptor; alpha4/beta2 (Rattus norvegicus, UniProt P09483+P12390); assay: Inhbition of [3H] nicotine binding to rat brain alpha4beta2 nAChR by Cheng-Prusoff equation analysis
# T4 sequence (P09483 whole entry): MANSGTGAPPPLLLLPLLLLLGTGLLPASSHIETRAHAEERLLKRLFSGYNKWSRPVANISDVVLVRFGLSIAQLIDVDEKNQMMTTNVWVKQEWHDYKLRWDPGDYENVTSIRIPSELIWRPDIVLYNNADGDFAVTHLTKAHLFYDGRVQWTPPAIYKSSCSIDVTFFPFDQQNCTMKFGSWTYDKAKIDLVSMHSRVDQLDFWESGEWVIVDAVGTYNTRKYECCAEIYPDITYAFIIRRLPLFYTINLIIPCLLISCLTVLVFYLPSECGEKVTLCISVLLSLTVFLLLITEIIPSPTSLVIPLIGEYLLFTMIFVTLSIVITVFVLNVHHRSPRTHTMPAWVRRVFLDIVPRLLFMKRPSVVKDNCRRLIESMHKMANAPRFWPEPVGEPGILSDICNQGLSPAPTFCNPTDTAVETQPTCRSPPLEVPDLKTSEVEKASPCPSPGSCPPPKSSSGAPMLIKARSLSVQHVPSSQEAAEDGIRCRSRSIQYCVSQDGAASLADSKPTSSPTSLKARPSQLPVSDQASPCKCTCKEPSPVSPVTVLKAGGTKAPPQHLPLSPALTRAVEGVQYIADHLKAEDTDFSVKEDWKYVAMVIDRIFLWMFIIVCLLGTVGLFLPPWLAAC
# T4 sequence (P12390 whole entry): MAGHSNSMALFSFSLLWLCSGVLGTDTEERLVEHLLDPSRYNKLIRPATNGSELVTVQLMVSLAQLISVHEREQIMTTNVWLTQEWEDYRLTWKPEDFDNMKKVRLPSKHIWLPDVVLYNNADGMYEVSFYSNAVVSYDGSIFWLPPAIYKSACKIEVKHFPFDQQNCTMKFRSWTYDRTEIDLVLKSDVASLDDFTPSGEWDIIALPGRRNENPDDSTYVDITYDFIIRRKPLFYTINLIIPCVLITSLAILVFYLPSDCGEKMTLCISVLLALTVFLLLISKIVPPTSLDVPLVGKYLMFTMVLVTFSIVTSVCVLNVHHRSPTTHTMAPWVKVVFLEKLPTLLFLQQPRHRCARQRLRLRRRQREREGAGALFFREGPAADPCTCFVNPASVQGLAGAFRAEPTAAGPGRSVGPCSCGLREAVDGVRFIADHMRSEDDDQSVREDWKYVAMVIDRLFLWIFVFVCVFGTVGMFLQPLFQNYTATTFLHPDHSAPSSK
# [39] = organism: Rattus norvegicus; assay: Potentiation of diphenylhydantoin-induced anticonvulsant activity in rat relative to control; assay type: functional
# [40] = organism: Rattus norvegicus; assay: Potentiation of morphine-induced analgesia in rat relative to control; assay type: functional
# [41] = Toxicity in ip dosed albino rat; assay type: organism-based; details: in vivo
# [42] = organism: Mus musculus; assay: Antipsychotic activity in albino mouse assessed as potentiation of hexobarbital-induced sleeping time; assay type: functional
# [43] = organism: Mus musculus; assay: Antiaggressive activity in mouse assessed as reduction in foot shock induced fighting behavior; assay type: functional; design: scale not given: the % may be the effect or the level left
# [44] = organism: Mus musculus; assay: Antipsychotic activity in mouse assessed as reduction in amphetamine-induced toxicity; assay type: functional; design: scale not given: the % may be the effect or the level left
# [45] = organism: Mus musculus; assay: Antipsychotic activity in trained mouse assessed as reduction in ability of mouse to remain on rotating rod; assay type: functional
# [46] = tested on: Rattus norvegicus; assay: Protection against pentylenetetrazol-induced convulsion in rat at 50 to 100 mg/kg, ip relative to control; assay type: functional; details: dose 50-100 mg/kg
# [47] = target: T5, Dopamine beta-hydroxylase (Bos taurus) (UniProt P15101); assay: Inhibition of bovine adrenal medulla DBH at 0.05 uM relative to control
# T5 sequence (whole entry): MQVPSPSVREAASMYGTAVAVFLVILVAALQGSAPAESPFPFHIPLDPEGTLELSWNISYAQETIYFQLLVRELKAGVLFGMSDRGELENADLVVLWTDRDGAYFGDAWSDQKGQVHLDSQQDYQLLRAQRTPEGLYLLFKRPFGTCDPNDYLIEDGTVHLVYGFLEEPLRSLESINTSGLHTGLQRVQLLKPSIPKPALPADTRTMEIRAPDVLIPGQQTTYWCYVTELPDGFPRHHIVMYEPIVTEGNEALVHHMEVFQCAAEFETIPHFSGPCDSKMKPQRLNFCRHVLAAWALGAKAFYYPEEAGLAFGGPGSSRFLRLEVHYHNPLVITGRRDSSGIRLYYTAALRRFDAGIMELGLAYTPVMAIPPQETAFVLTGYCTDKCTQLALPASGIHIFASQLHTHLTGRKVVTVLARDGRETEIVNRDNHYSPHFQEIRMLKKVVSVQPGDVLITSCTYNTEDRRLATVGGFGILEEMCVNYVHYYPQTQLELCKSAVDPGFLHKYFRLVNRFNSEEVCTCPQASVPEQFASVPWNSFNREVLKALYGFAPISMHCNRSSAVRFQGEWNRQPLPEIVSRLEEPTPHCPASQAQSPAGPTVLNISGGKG
# [48] = target: T5, Dopamine beta-hydroxylase (Bos taurus); assay: Inhibition of bovine adrenal medulla DBH at 0.5 uM relative to control
# [49] = In vivo inhibition of DBH in rat assessed as norepinephrine expression in rat brain at 100 mg/kg, ip administered as single dose measured after 3 hrs by spectrophotofluorometric analysis (reference value: 0.22 ug/g); assay type: functional, organism-based
# [50] = In vivo inhibition of DBH in human assessed as reduction in 3-methoxy-4-hydroxy-phenylglycol level in cerebrospinal fluid at 1.12g administered for 10 to 20 days; assay type: functional; details: time 10-20 day
# [51] = target: T5, Dopamine beta-hydroxylase (Bos taurus); assay: Inhibition of bovine adrenal medulla DBH at 1 uM relative to control
# [52] = target: Dopamine beta-hydroxylase (Bos taurus, UniProt P15101); assay: Inhibition of bovine adrenal medulla DBH incubated for 25 mins
# [53] = target: T5, Dopamine beta-hydroxylase (Bos taurus); assay: Inhibition of bovine adrenal medulla DBH at 0.005 uM relative to control
# [54] = In vivo inhibition of DBH in rat assessed as norepinephrine expression in rat brain at 100 mg/kg, ip administered as single dose measured after 3 hrs by spectrophotofluorometric analysis (reference value: 0.42 ug/g); assay type: functional, organism-based
# [55] = tested on: PC-12; assay: Induction of neurite outgrowth in rat PC-12 cells at 3.3 uM incubated for 24 hrs by phase contrast microscopic analysis relative to control; assay type: functional
# [56] = tested on: PC-12; assay: Induction of neurite outgrowth in rat PC-12 cells at 33 uM incubated for 24 hrs by phase contrast microscopic analysis relative to control; assay type: functional
# [57] = tested on: PC-12; assay: Induction of neurite outgrowth in rat PC-12 cells at 10 uM incubated for 24 hrs by phase contrast microscopic analysis relative to control; assay type: functional
# [58] = target: T4, Neuronal acetylcholine receptor; alpha4/beta2
# [59] = target: T2, Neuronal acetylcholine receptor subunit alpha-7
# Description: Displacement of [3H]MLA from rat alpha7 nAChR by liquid scintillation counting
smiles,measurement,setting,value
CN1CCCC[C@H]1c1ccc(-c2cccnc2)nc1,Ratio Ki,[1],8.6
same,pKi,[2],4.29
same,pKi,[3],3.36
COc1c2c(nc3occc13)[C@@](CC=C(C)C)(OC)[C@H](O)CC2,Activity,[4],80%
same,Activity,[5],50%
same,Activity,[6],50%
same,Activity,[7],100%
same,Activity,[8],100%
same,Activity,[9],100%
c1cncc([C@@H]2CCCCN2)c1 [ANABASINE],pKi,[10],6.41
same,pEC50,[11],4.74
same,LD50,[12],16 mg/kg
C/C=C1\[C@H]2C=C(C)C[C@]1(N)c1ccc(=O)[nH]c1C2 [HUPERZINE A],Activity,[13],85%
same,Activity,[14],668 nM
same,Activity,[15],505 nM
same,Activity,[16],30%
same,LD50,[17],2 mg/kg
same,LD50,[18],> 4 mg/kg
O=C(O)c1ccc(Cc2ccc(O)cc2)cn1,LD50,[19],350 mg/kg
same,Activity,[20],23%
same,Activity,[21],16%
same,Activity,[22],21%
c1cncc([C@@H]2CCCN2)c1 [NORNICOTINE],pEC50,[23],4.76
same,pEC50,[24],3.21
C/C=C1\C2C=C(C)CC1(NCC(=O)OC)c1ccc(=O)[nH]c1C2 (centres undefined),pIC50,[25],5.17
C=CC1C2C=C(CO)CC1(N)c1ccc(=O)[nH]c1C2 (centres undefined),pIC50,[26],4.62
C[C@@H]1CC2C3Cn4c(cccc4=O)C(CN2C)C31 (some centres undefined),Ratio IC50,[27],5
same,pIC50,[28],9.02
same,pKi,[29],9.49
same,Ratio Ki,[30],5
CC1=C[C@@H]2Cc3[nH]c(=O)ccc3[C@]3(C1)NCCC[C@H]23,pIC50,[31],5.59
same,pIC50,[32],3.77
CN1CC=CC[C@H]1c1cccnc1,Ratio,[33],6
same,pEC50,[34],5.21
same,Imax,[35],26%
same,Ratio EC50,[36],8
CN1CCC[C@H]1c1cncc([C@@H]2CCCN2C)c1,inhibition,[37],< 64%
same,pKi,[38],5.93
C=Cc1cncc2c1CCOC2=O,Activity,[39],60%
same,Activity,[40],150%
same,LD50,[41],276 mg/kg
same,Activity,[42],80%
same,Activity,[43],60%
same,Activity,[44],88%
same,Activity,[45],80%
same,Activity,[46],70%
CCCCc1ccc(C(=O)O)nc1 [FUSARIC ACID],inhibition,[47],58%
same,inhibition,[48],89%
same,IC50,[49],0.1 µg/g
same,inhibition (INH),[50],25%
same,inhibition,[51],92%
same,pIC50,[52],7.30
same,inhibition,[53],20%
same,IC50,[54],0.4 µg/g
CC[C@@H](C)C[C@@H](C)/C=C(C)/C=C/C=C/C(=O)c1c(O)c(C2(O)CCC(O)CC2)cn(O)c1=O (some centres undefined),Activity,[55],30%
same,Activity,[56],80%
same,Activity,[57],70%
O=c1c(O)ccc2n1CC1CNC2C1 (centres undefined),pKi,[58],4.85
same,pKi,[59],3.59
